How the values were obtained:
potassium channels = potassium channels (Sus scrofa, UniProt F1SR11); experiment: Functional potassium channel opening activity in isolated Landrace pig bladder strips (field-stimulated twitch); conditions: for Landrace Pig Bladder Index: ED50 for P1075 divided by ED50 for the test agonist, averaged over tissues; for Landrace Pig Bladder pD2: negative logarithm of ED50; for Emax: pig, maximal efficacy relative to P1075, field stimulation 0.05Hz, 0.5 milli-seconds at 20 volts
How it was run: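 Landrace pig bladder strips with the mucosa removed were field-stimulated (0.05 Hz, 0.5 ms, 20 V) in Krebs Ringer bicarbonate containing propranolol, and primed with 80 mM KCl. Cumulative concentration-response curves gave maximal efficacy relative to a reference potassium channel opener, pD2, and a potency index (reference ED50/test ED50) averaged across tissues.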

Compound	Landrace Pig Bladder Index (potassium channels)	Landrace Pig Bladder pD2 (potassium channels)	Emax (potassium channels)	melting point
O=C1CCCC2=C1C(c1ccc(F)c(Cl)c1)C1=C(CCS1(=O)=O)N2 (single isomer, unassigned; (+)) [Example 109, (+)-9-(3-chloro-4-fluorophenyl)-2,3,5,6,7,9-hexahydrothieno[3,2-b]quinolin-8(4H)-one, 1,1-dioxide]	0.36	6.6	100%	> 250 °C
N#Cc1cccc(C2C3=C(CCC3=O)NC3=C2S(=O)(=O)CC3)c1 (stereo not drawn) [Example 52, 8-(3-cyanophenyl)-2,3,4,5,6,8-hexahydro-7H-cyclopenta[b]thieno [2.3-e]pyridin-7-one, 1,1-dioxide]	0.018	5.6	100%	156 to 176 °C
O=C1CCC2=C1C(c1ccc(F)c(Br)c1)C1=C(CCS1(=O)=O)N2 (stereo not drawn) [Example 56, 8-(3-bromo-4-fluorophenyl)-2,3,4,5,6,8-hexahydro-7H-cyclopenta[b]thieno[2,3-e]pyridin-7-one, 1,1-dioxide]	0.88	7.1	97%	> 260 °C
O=C1CCC2=C1C(c1ccc(F)c(C(F)(F)F)c1)C1=C(CCS1(=O)=O)N2 (stereo not drawn) [Example 57, 8-(4-fluoro-3-trifluoromethylphenyl)-2,3,4,5,6,8-hexahydro-7H-cyclopenta[b]thieno [2.3-e]pyridin-7-one, 1,1-dioxide]	0.42	6.8	100%	254 °C
O=C1CCC2=C1C(c1ccc(Cl)c(Cl)c1)C1=C(CCS1(=O)=O)N2 (stereo not drawn) [Example 60, 8-(3 4-dichlorophenyl)-2,3 4,5,6,8-hexahydro-7H-cyclopenta[b]thieno [2,3-e]pyridin-7-one, 1,1-dioxide]	0.60	6.9	100%	> 260 °C
O=S1(=O)CCC2=C1C(c1ccc(F)c(C(F)(F)F)c1)C1=C(CCS1(=O)=O)N2 [Example 65]	0.048	6.0	100%	> 260 °C
CC(=O)C1=C(C)NC2=C(C1c1ccc(F)c(Br)c1)S(=O)(=O)CCC2 (stereo not drawn) [Example 66, 1-[8-(3-bromo-4-fluorophenyl)-3,4,5,8-tetrahydro-6-methyl-1.-dioxido-2H-thiopyrano[3,2-b]pyridin-7-yl)lethan-1-one]	0.12	6.3	94%	> 260 °C
O=C1CCC2=C1C(c1ccc([N+](=O)[O-])s1)C1=C(CCS1(=O)=O)N2 (stereo not drawn) [Example 70]	0.15	6.3	100%	251 to 254 °C
O=[N+]([O-])c1cccc(C2C3=C(CCS3(=O)=O)NC3=C2S(=O)(=O)CC3)c1 [Example 73]	0.0022	4.4	98%	248 to 252 °C
O=S1(=O)CCC2=C1C(c1ccc(F)c(Cl)c1)C1=C(CCS1(=O)=O)N2 [Example 74]	0.081	6.1	100%	> 260 °C
O=S1(=O)CCC2=C1C(c1ccc(Cl)c(Cl)c1)C1=C(CCS1(=O)=O)N2 [Example 77]	0.046	5.5	93%	> 260 °C
O=C1CCCC2=C1C(c1ccc(F)c(Cl)c1)C1=C(CCS1(=O)=O)N2 (stereo not drawn) [Example 81, 9-(3-chloro-4-fluorophenyl)-2,3,5,6,7,9-hexahydrothieno [3.2-b]quinolin-8(4H)-one, 1 1-dioxide]	0.39	6.4	91%	> 260 °C
CC1=C(C(=O)O)C(c2ccc(F)c(Br)c2)C2=C(CCS2(=O)=O)N1 (stereo not drawn) [Example 106, 7-(3-bromo-4-fluorophenyl)-5-methyl-2,3,4,7-tetrahydrothieno[3.2-b]pyridine-6-carboxylic acid, 1,1-dioxide]	0.014	5.1	98%	220 to 223 °C
CC1=C(C(=O)O)C(c2ccc(F)c(Br)c2)C2=C(CCCS2(=O)=O)N1 (stereo not drawn) [Example 107]	0.015	5.2	100%	208 to 210 °C
O=C1CCCC2=C1C(c1ccncc1)C1=C(CCS1(=O)=O)N2 (stereo not drawn) [Example 118, 9-(4-pyridinyl)-2,3.5,6,7,9-hexahydrothieno[3,2-b]quinolin-8(4H)-one, 1,1-dioxide]	–	–	–	> 250 °C
O=C1CCCC2=C1C(c1cc(Cl)ccc1O)C1=C(CCS1(=O)=O)N2 (stereo not drawn) [Example 120, 9-(5-chloro-2-hydroxyphenyl)-2,3,5,6,7,,9-hexahydrothieno[3 .2-b]guinolin-8(4H)-one, 1. I -dioxide]	–	–	–	> 250 °C
CC1(C)CCC2=C(C1=O)C(c1ccc(Cl)c(Cl)c1)C1=C(CCS1(=O)=O)N2 (stereo not drawn) [Example 127, 9-(3,.4-dichlorophenyl)-7,7-dimethyl-2,3.5,.6,7,9-hexahydrothieno[3,*2-b Iquinolin-8(4H)-one, 1,1-dioxide]	–	–	–	262 to 265 °C (dec.)
O=C1CCCC2=C1C(c1ccc(Br)s1)C1=C(CCS1(=O)=O)N2 (stereo not drawn) [Example 128, 9-(5-bromo-2-thienyl)-2,3,5,6,7,9-hexahydrothieno[3,2-b]quinolin-8(4H)-one, 1,1-dioxide]	–	–	–	> 250 °C
O=C1CCCC2=C1C(c1cc(Br)cs1)C1=C(CCS1(=O)=O)N2 (stereo not drawn) [Example 129, 9-(4-bromo-2-thienyl)-2,3,5,6,7,9-hexahydrothieno[3,2-b]quinolin-8(4H)-one, 1,1-dioxide]	–	–	–	> 250 °C
O=C1CCCC2=C1C(c1ccc(Br)c(Br)c1)C1=C(CCS1(=O)=O)N2 (stereo not drawn) [Example 137, 9-(3 4-dibromophenyl)-2,3,5,6,79-hexahydrothieno[3,2-b]quinolin-8(4H)-one 1 1-dioxide]	–	–	–	> 250 °C
O=C1CCCC2=C1C(c1ccc(Cl)c(C(F)(F)F)c1)C1=C(CCS1(=O)=O)N2 (stereo not drawn) [Example 151, 9-[4-chloro-3-(trifluoromethyl)phenyl]-2,3,5,6,7,9-hexahydrothieno [32-b]quinolin-8(4H)-one, 1,1-dioxide]	–	–	–	> 250 °C
O=S1(=O)CCC2=C1C(c1ccc(F)c(Cl)c1)C=C(C(F)(F)F)N2 (stereo not drawn) [Example 163, 7-(3-chloro-4-fluorophenyl)-5-(trifluoromethyl)-2,3,4,7-tetrahydrothieno[3,2-b]pyridine, 1,1-dioxide]	–	–	–	180 to 183 °C
N#Cc1ccc(C2C3=C(CCCC3=O)NC3=C2S(=O)(=O)CC3)s1 (stereo not drawn) [Example 175, 9-(5-cyano-2-thienyl)-2,3,5,6,7,9-hexahydrothieno[3,2-b]guinolin-8(4H)-one, 1,1-dioxide]	–	–	–	> 250 °C
CC1(C)CCC(=O)C2=C1NC1=C(C2c2ccc(F)c(Br)c2)S(=O)(=O)CC1 (stereo not drawn) [Example 212]	–	–	–	> 270 °C

Source: US6593335B1, “Potassium channel openers” (Abbott Laboratories, priority 1997, dated 2003)
